The text below walks through data of patent EP0531958A1, “6-Aminoquinolones, their synthesis and their use as antibacterial agents” (MEDIOLANUM FARMACEUTICI S.P.A., priority 1991, dated 1993).

In brackets after ≈: the same amount, converted by molar mass. Read-outs that look alike come from different tables or passages of the source.

Common to all, as to type: cell-based
The subject of one experiment is Gram +. Briefly: MIC test, average over the 5 gram-positive test germs. To be noted: 24 h. On the procedure:
(§1) As to the antibacterial activity, there was determined the Least (Minimum) Inhibiting Concentration (MIC), by working according to the following operative conditions.
(§2) There were used suspensions of test germs (5 gram-positive and 15 gram-negative) having a known titre, kept freezed at -80°C and diluted, at the time of use, in peptonized water up to a concentration of 1-2.10⁷ cfu/ml.
(§3) A few mg of the products, according to the invention were weighed sufficient for preparing parent solutions in DMSO + NaOH (1N) containing 2560 µg/ml (64µg/ml/dish). From the thus prepared parent solutions there were prepared 12 serial dilutions (1:2) down to the concentration of 1.25 µg/ml.
(§4) 0.5 ml of the different dilutions of each product were distributed on dishes containing 19.5 ml of agarized medium (TSA), maintained in a fluid state at the temperature of 50°C. After slight stirring, the dishes were made to solidify and dry under hood (laminar flow).
(§5) The MIC tests (Least or "Minimum" Inhibiting Concentration) were performed by using a Steers multiwell inoculator having 36 wells, each containing 200 µl of bacterial suspension.
(§6) After inoculation, the dishes were placed into a thermostat and checked after 24 h of incubation at 35°C.
(§7) The MIC is defined as the lowermost product concentration (µg/ml) inhibiting the visible growth of the microorganisms.

The subject of experiment [1] is Providencia stuardii CNUR 5. Briefly: MIC test, agar dilution with Steers multiwell inoculator. To be noted: CNUR5, TSA dishes, 24 h at 35°C, read-out: Minimum Inhibiting Concentration. On the procedure:
as §1, §2, §3, §4, §5, §6, §7
(Agar dilution tests growth on a series of plates holding different concentrations.)

A further experiment concerns Escherichia coli ISF 432. The experiment is described as above. The note with it: ISF432, TSA dishes, 24 h at 35°C, read-out: Minimum Inhibiting Concentration. The procedure:
as §1, §2, §3, §4, §5, §6, §7

The next experiment has as its system Proteus vulgaris CNUR 6. Described as above. The note with it: CNUR6, TSA dishes, 24 h at 35°C, read-out: Minimum Inhibiting Concentration. The procedure: as §1, §2, §3, §4, §5, §6, §7
The test system of experiment [2] is Escherichia coli ATCC 8739. The description is as above. To be noted: ATCC8739, TSA dishes, 24 h at 35°C, read-out: Minimum Inhibiting Concentration. The procedure: as §1, §2, §3, §4, §5, §6, §7
Experiment [3] concerns Enterobacter cloacae OMNF 1174. Described as above. The note with it: OMNF1174, TSA dishes, 24 h at 35°C, read-out: Minimum Inhibiting Concentration. On the procedure:
as §1, §2, §3, §4, §5, §6, §7

The test system of experiment [4] is Acinebacter calcoloaceticus OSMPV 1130. The experiment is described as above. To be noted: TSA dishes, 24 h at 35°C, read-out: Minimum Inhibiting Concentration. The procedure: as §1, §2, §3, §4, §5, §6, §7
Another experiment deals with Escherichia coli CNUR 1. The experiment is described as above. To be noted: CNUR1, TSA dishes, 24 h at 35°C, read-out: Minimum Inhibiting Concentration. On the procedure: as §1, §2, §3, §4, §5, §6, §7
Experiment [5] deals with Staphylococcus epidermidis HCF Berset C. Described as above. To be noted: TSA dishes, 24 h at 35°C, read-out: Minimum Inhibiting Concentration. On the procedure: as §1, §2, §3, §4, §5, §6, §7
The subject of experiment [6] is Pseudomonas aeruginosa ATCC 9027. The experiment is described as above. The note with it: ATCC9027, TSA dishes, 24 h at 35°C, read-out: Minimum Inhibiting Concentration. On the procedure: as §1, §2, §3, §4, §5, §6, §7
The test system of experiment [7] is Staphylococcus aureus ATCC 6538. The experiment is described as above. The note with it: ATCC6538, TSA dishes, 24 h at 35°C, read-out: Minimum Inhibiting Concentration. On the procedure: as §1, §2, §3, §4, §5, §6, §7
For experiment [8], the system named is Staphylococcus epidermidis CPHL A2. Described as above. The note with it: CPHLA2, TSA dishes, 24 h at 35°C, read-out: Minimum Inhibiting Concentration. The procedure: as §1, §2, §3, §4, §5, §6, §7
Experiment [9] concerns Staphylococcus aureus MPR 5. The experiment is described as above. The note with it: MPR5, TSA dishes, 24 h at 35°C, read-out: Minimum Inhibiting Concentration. The procedure:
as §1, §2, §3, §4, §5, §6, §7

The subject of experiment [10] is Enterobacter cloacae OMNF 1153. Described as above. To be noted: OMNF1153, TSA dishes, 24 h at 35°C, read-out: Minimum Inhibiting Concentration. The procedure:
as §1, §2, §3, §4, §5, §6, §7

Experiment [11] deals with Pseudomonas aeruginosa CNUR 2. The description is as above. The note with it: CNUR2, TSA dishes, 24 h at 35°C, read-out: Minimum Inhibiting Concentration. The procedure: as §1, §2, §3, §4, §5, §6, §7
Experiment [12] relates to Klebsiella pneumoniae ATCC 10031. Described as above. To be noted: ATCC10031, TSA dishes, 24 h at 35°C, read-out: Minimum Inhibiting Concentration. On the procedure: as §1, §2, §3, §4, §5, §6, §7
In another experiment the test system is Escherichia coli 120. Described as above. To be noted: TSA dishes, 24 h at 35°C, read-out: Minimum Inhibiting Concentration. The procedure: as §1, §2, §3, §4, §5, §6, §7
Experiment [13] concerns Pseudomonas aeruginosa CNUR 4. The experiment is described as above. The note with it: CNUR4, TSA dishes, 24 h at 35°C, read-out: Minimum Inhibiting Concentration. The procedure: as §1, §2, §3, §4, §5, §6, §7
The subject of another experiment is Shighella enteritidis. Described as above. The note with it: TSA dishes, 24 h at 35°C, read-out: Minimum Inhibiting Concentration. The procedure: as §1, §2, §3, §4, §5, §6, §7
For experiment [14], the system named is Streptococcus facealis LEP Br. The experiment is described as above. To be noted: TSA dishes, 24 h at 35°C, read-out: Minimum Inhibiting Concentration. On the procedure: as §1, §2, §3, §4, §5, §6, §7
The subject of another experiment is Escherichia coli CNUR 8. The experiment is described as above. To be noted: CNUR8, TSA dishes, 24 h at 35°C, read-out: Minimum Inhibiting Concentration. The procedure:
as §1, §2, §3, §4, §5, §6, §7

For another experiment, the system named is Gram -. Kind of experiment: MIC test, average over the 15 gram-negative test germs. The note with it: 24 h. On the procedure: as §1, §2, §3, §4, §5, §6, §7
The mark [15] stands for this setting: geometrical average of the MIC over the 5 Gram + strains, read-out: Geometrical Average.
The mark [16] stands for this setting: geometrical average of the MIC over the 15 Gram - strains, read-out: Geometrical Average.
The mark [17] stands for this setting: mean log of the MIC over the 15 Gram - strains, read-out: Log (converted).

On to `CN1CCN(c2c(F)cc3c(=O)c(C(=O)O)cn4c3c2SCC4)CC1` [RUFLOXACIN, reference compound], for which the MIC in the experiment on Gram + (setting [15]) was 1.51 µg/mL; with Gram + (read-out: Log (converted)) it was 1.52 µg/mL (≈ 4.17 µM); in experiment [1], 2 µg/mL (≈ 5.5 µM); in the experiment on Escherichia coli ISF 432 it was 0.06 µg/mL (≈ 0.165 µM); with Proteus vulgaris CNUR 6 it was 16 µg/mL (≈ 44 µM); in [2] it was 0.5 µg/mL (≈ 1.38 µM). The MIC in experiment [3] was 0.5 µg/mL (≈ 1.38 µM); in experiment [4], 2 µg/mL (≈ 5.5 µM); in the experiment with Escherichia coli CNUR 1, 0.5 µg/mL (≈ 1.38 µM); in experiment [5] it was 2 µg/mL (≈ 5.5 µM); in [6] it was 8 µg/mL (≈ 22 µM); in experiment [7], 0.5 µg/mL (≈ 1.38 µM). The MIC was 1 µg/mL (≈ 2.75 µM) in [8]; 1 µg/mL (≈ 2.75 µM) in [9]; 1 µg/mL (≈ 2.75 µM) in [10]; 32 µg/mL (≈ 88.1 µM) in experiment [11]; 0.12 µg/mL (≈ 0.33 µM) in experiment [12]; 0.25 µg/mL (≈ 0.688 µM) with Escherichia coli 120. In addition, the MIC in experiment [13] was 64 µg/mL (≈ 176 µM); in the experiment with Shighella enteritidis, 0.5 µg/mL (≈ 1.38 µM); in experiment [14], 8 µg/mL (≈ 22 µM); in the experiment with Escherichia coli CNUR 8, 0.5 µg/mL (≈ 1.38 µM); with Gram - (setting [16]), 1.31 µg/mL (≈ 3.61 µM); with Gram - (setting [17]), 1.31 µg/mL (≈ 3.61 µM).
In the case of `CN1CCN(c2cc3c(cc2N)c(=O)c(C(=O)O)cn3-c2ccc(F)cc2)CC1` [Compound 50], the MIC with Gram + (setting [15]) was 10.6 µg/mL; in the experiment on Gram + (read-out: Log (converted)), 10.5 µg/mL (≈ 26.6 µM); in [1], 4 µg/mL (≈ 10.1 µM); in the experiment with Escherichia coli ISF 432 it was 0.25 µg/mL (≈ 0.631 µM); in the experiment on Proteus vulgaris CNUR 6, 128 µg/mL (≈ 323 µM); in [2], 0.25 µg/mL (≈ 0.631 µM). The MIC was 4 µg/mL (≈ 10.1 µM) in experiment [3]; 16 µg/mL (≈ 40.4 µM) in experiment [4]; 4 µg/mL (≈ 10.1 µM) with Escherichia coli CNUR 1; 8 µg/mL (≈ 20.2 µM) in experiment [5]; 8 µg/mL (≈ 20.2 µM) in experiment [6]; 8 µg/mL (≈ 20.2 µM) in [7]. Further, the MIC amounted to 8 µg/mL (≈ 20.2 µM) in experiment [8]; 4 µg/mL (≈ 10.1 µM) in experiment [9]; 4 µg/mL (≈ 10.1 µM) in experiment [10]; 32 µg/mL (≈ 80.7 µM) in [11]; 0.12 µg/mL (≈ 0.303 µM) in [12]; 0.5 µg/mL (≈ 1.26 µM) in the experiment with Escherichia coli 120. In addition, the MIC in experiment [13] was 128 µg/mL (≈ 323 µM); in the experiment on Shighella enteritidis it was 4 µg/mL (≈ 10.1 µM); in [14] it was 64 µg/mL (≈ 161 µM); in the experiment on Escherichia coli CNUR 8 it was 0.5 µg/mL (≈ 1.26 µM); with Gram - (setting [16]), 3.47 µg/mL (≈ 8.76 µM); in the experiment with Gram - (setting [17]), 3.48 µg/mL (≈ 8.77 µM).
Turning to `Nc1cc2c(=O)c(C(=O)O)cn(-c3ccc(F)cc3)c2cc1N1CCc2ccccc2C1` [Compound 52, 6-amino-1-(4-fluorophenyl)-7-[2-(1,2,3,4-tetrahydroisoquinolinyl)]-1,4-dihydro-4-oxo-quinoline carboxylic acid], the MIC was 3.03 µg/mL in the experiment on Gram + (setting [15]); 3.03 µg/mL (≈ 7.06 µM) in the experiment with Gram + (read-out: Log (converted)); 8 µg/mL (≈ 18.6 µM) in [1]; 0.12 µg/mL (≈ 0.279 µM) in the experiment with Escherichia coli ISF 432; 128 µg/mL (≈ 298 µM) in the experiment on Proteus vulgaris CNUR 6; 0.12 µg/mL (≈ 0.279 µM) in [2]. Further, the MIC was 4 µg/mL (≈ 9.31 µM) in experiment [3]; 4 µg/mL (≈ 9.31 µM) in experiment [4]; 4 µg/mL (≈ 9.31 µM) in the experiment on Escherichia coli CNUR 1; 4 µg/mL (≈ 9.31 µM) in experiment [5]; 128 µg/mL (≈ 298 µM) in [6]; 0.5 µg/mL (≈ 1.16 µM) in experiment [7]. The MIC in experiment [8] is 2 µg/mL (≈ 4.66 µM); in experiment [9], 1 µg/mL (≈ 2.33 µM); in experiment [10], 8 µg/mL (≈ 18.6 µM); in experiment [11], 128 µg/mL (≈ 298 µM); in experiment [12], 0.12 µg/mL (≈ 0.279 µM); with Escherichia coli 120, 1 µg/mL (≈ 2.33 µM). In addition, the MIC in experiment [13] is 128 µg/mL (≈ 298 µM); in experiment [14] it was 64 µg/mL (≈ 149 µM); with Escherichia coli CNUR 8, 1 µg/mL (≈ 2.33 µM); in the experiment with Gram - (setting [16]) it was 4.56 µg/mL (≈ 10.6 µM); in the experiment with Gram - (setting [17]) it was 4.56 µg/mL (≈ 10.6 µM).
